Patent US20190054054A1, “Methods reducing or preventing oxidation of high density lipoprotein (HDL)” (Amarin Pharmaceuticals Ireland Limited, priority 2017, published 2019)

Assays:
[1] = Glucose-induced membrane lipid peroxidation (LOOH, CHOD-iodide assay) in DLPC/cholesterol vesicles (Examples 4 and 5); format: biochemical; conditions: for inhibition of the peroxidative effects of glucose (LOOH formation) / effect on LOOH formation / lipid peroxidation (FIG. 3): 1:30 drug-to-phospholipid mole ratio; for effect on LOOH formation / lipid peroxidation (FIG. 3): glucose, 72- and 96-hour time points
Procedure: Vitamin E (α-tocopherol) was also purchased from Sigma-Aldrich and prepared in ethanol at 1.0 mM (e=[…] at 294 nm) just prior to experimental use. […] All test compounds were further diluted in ethanol or aqueous buffer as needed. Glucose was prepared in saline buffer (0.5 mM HEPES, 154 mM NaCl, pH 7.3) at 11.0 mM (200 mg/dL). CHOD-iodide color reagent (stock) was prepared, with slight modification, as described by from El-Saadani et al. (J. […] Samples were shell-dried under nitrogen gas and placed under vacuum for 1 h to remove residual solvent. […] Lipid suspensions were then vortexed for 3 min at ambient temperature to form MLVs. All MLV samples were subjected to time-dependent autoxidation by incubating at 37° C. in an uncovered, shaking water bath. This method allows lipid peroxidation to occur gradually without requiring the use of exogenous initiators. Small aliquots (5-100 μL) of each sample were removed, immediately following MLV preparation (0 hour) and after exposing samples to oxidative conditions for 72 or 96 hour, and combined with 1.0 mL of activated CHOD-iodide color reagent. Aliquot volume was reduced with each successive time point to ensure that spectrophotometric readings were within the optimal adsorption range. Test samples were covered and incubated in darkness at room temperature for at least 4 hr. Sample absorbances were then measured against a CHOD blank at 365 nm using a Beckman DU-640 spectrophotometer. The CHOD colorimetric assay is based on the oxidation of iodide (I^−) by lipid hydroperoxide (LOOH) to form triiodide (I3^−), the quantity of which is directly proportional to the amount of LOOH present in the lipid sample. The molar absorptivity (ε) of I3^− is 2.46×10^4 M^−1 cm^−1 at 365 nm. An experiment was conducted to compare the ability of EPA to prevent lipid hydroperoxide formation in model membranes treated with glucose to two other 20-carbon fatty acids: eicosanoic acid (“EA,” also referred to as arachidic acid, C20:0) and eicosatrienoic acid (“ETE,” C20:3, n-3). All MLV samples were subjected to time-dependent autoxidation by incubating at 37° C. in an uncovered, shaking water bath. This method allows lipid peroxidation to occur gradually without requiring the use of exogenous initiators. Small aliquots (5-100 μL) of each sample were removed, immediately following MLV preparation (0 hr) and after exposing samples to oxidative conditions for 72 or 96 hr, and combined with 1.0 mL of activated CHOD-iodide color reagent. Aliquot volume was reduced with each successive time point to ensure that spectrophotometric readings were within the optimal adsorption range. Test samples were covered and incubated in darkness at room temperature for at least 4 hr. Sample absorbances were then measured against a CHOD blank at 365 nm using a Beckman DU-640 spectrophotometer. The CHOD colorimetric assay is based on the oxidation of iodide (I^−) by lipid hydroperoxide (LOOH) to form triiodide (I3^−), the quantity of which is directly proportional to the amount of LOOH present in the lipid sample. The molar absorptivity (ε) of I3^− is 2.46×10^4 M^−1 cm^−1 at 365 nm.

[2] = Glucose- and peroxidation-induced cholesterol domain formation, small angle x-ray diffraction (Example 4); conditions: 1:30 mole ratio; for effect on membrane structure as compared to control: at the start of the experiment (0 hours)
Procedure: Samples were shell-dried under nitrogen gas and placed under vacuum for 1 h to remove residual solvent. […] Lipid suspensions were then vortexed for 3 min at ambient temperature to form MLVs. […] Membrane lipid vesicles were oriented for x-ray diffraction analysis as described by others (e.g., Herbette et al., Biophys. […] Briefly, a 100 μL aliquot (containing 250 μg MLV) was aspirated from each sample and transferred to a Lucite® sedimentation cell fitted with an aluminum foil substrate upon which a given sample could be collected by centrifugation. Samples were then loaded into a Sorvall AH-629 swinging bucket rotor (DuPont Corp., Wilmington, Del.) and centrifuged at 35,000 g, 5° C., for 90 min. After centrifugal orientation, sample supernatants were aspirated and aluminum foil substrates, each supporting a single membrane pellet, were removed from the sedimentation cells. Sample pellets were dried for 5-10 min at ambient conditions, mounted onto curved glass supports, and placed in hermetically-sealed, brass or glass containers (for immediate analysis or temporary storage, respectively). All x-ray diffraction experiments were conducted at 20° C., 74% relative humidity. The latter was established by exposing membrane samples to saturated solutions of L-(+) tartaric acid (K2C4H4O6.½H2O). Samples were incubated at these conditions for at least 1 hour prior to experimental analysis. Oriented membrane samples were aligned at grazing incidence with respect to a collimated, mono-chromatic CuKα x-ray beam (Kα1 and Kα2 unresolved; λ=1.54 Å) produced by a Rigaku Rotaflex RU-200, high-brilliance microfocus generator (Rigaku-MSC, The Woodlands, Tex.) as previously described (Mason et al., Biophys. J., vol. 55(4), pages 769-778 (1989)). Diffraction data were collected on a one-dimensional, position-sensitive electron detector (Hecus X-ray Systems, Graz, Austria) at a sample-to-detector distance of 150 mm. […] The d-space for any given membrane multibilayer is a measurement of the unit cell periodicity of the membrane lipid bilayer (e.g., the distance from the center of one lipid bilayer to the next including surface hydration), and is calculated from Bragg's Law, h λ=2 d sin θ, where h is the diffraction order, λ is the wavelength of the x-ray radiation (1.54 Å), d is the membrane lipid bilayer unit cell periodicity, and θ is the Bragg angle equal to one-half the angle between the incident beam and scattered beam. […] Under the specific temperature and relative humidity conditions established for these experiments, the second-order, 17 Å cholesterol domain peak was well-delineated from other, neighboring cholesterol and phospholipid diffraction peaks and was thus used to quantitate relative cholesterol domain peak intensity. […]

SMILES	inhibition of the peroxidative effects of glucose (LOOH formation) ([1]; glucose 200 mg/dL, 72 hours)	inhibition of the peroxidative effects of glucose (LOOH formation) ([1]; glucose 200 mg/dL, 96 hours)	effect on LOOH formation / lipid peroxidation (FIG. 3) [1]	membrane LOOH formation, dose dependence ([1]; EPA at 1.0 and 5.0 μM, glucose-treated)	LOOH formation compared to vehicle only, glucose only, glucose and EA, or glucose and ETE ([1]; Example 5, 72 and 96 hr)	antioxidant effect, separate treatments ([1]; each at 1.0 μM, glucose 200 mg/dL, 96 hours)	inhibition of relative cholesterol domain peak intensity ([2]; 96-hour time point, compared to vehicle or vitamin E)	effect on membrane structure as compared to control ([2]; glucose 200 mg/dL)	effect on cholesterol domain formation as compared to control ([2]; any experimental time point, glucose 200 mg/dL)
CC/C=C\C/C=C\C/C=C\C/C=C\C/C=C\CCCC(=O)O [EPA, cis-5,8,11,14,17-eicosapentaenoic acid]	88%	86%	significantly inhibited LOOH formation	inhibit membrane LOOH formation in a dose-dependent manner	significantly less LOOH formation	separate and potent antioxidant effects	more than 99%	no appreciable effect on membrane structure	–
Cc1c(C)c2c(c(C)c1O)CC[C@@](C)(CCC[C@H](C)CCC[C@H](C)CCCC(C)C)O2 [vitamin E, α-tocopherol]	–	–	no significant effect on lipid peroxidation	–	–	–	–	no appreciable effect on membrane structure	no significant effect on cholesterol domain formation
